# Measured values taken from PubChem BioAssay (NCI).
#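 All cell lines were grown in 96-well plates and treated with compound for 48 hours. TGI: total growth inhibition.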 Where a SMILES comes first, the peptide text is derived from it. [ ]: non-standard residue; d: D form. The star is where a group is joined. ξ: configuration not given here. ξPhe(4-NO2) = NC(Cc1ccc([N+](=O)[O-])cc1)C(=O)O; Boc = CC(C)(C)OC(=O)*
# What was measured:
# Experiment in all cases: DTP human tumour cell line panel, 48 h
# EKVX NSCLC = tested on: EKVX NSCLC
# OVCAR-3 ovarian = tested on: OVCAR-3 ovarian
# DU-145 prostate = tested on: DU-145 prostate
# A498 renal = tested on: A498 renal
# HOP-62 NSCLC = tested on: HOP-62 NSCLC
# NCI-H522 lung = tested on: NCI-H522 lung
# A549 NSCLC = tested on: A549 NSCLC
# HT29 colon = tested on: HT29 colon
# NCI/ADR-RES ovarian = tested on: NCI/ADR-RES ovarian
# NCI-H23 lung = tested on: NCI-H23 lung
# NCI-H460 lung = tested on: NCI-H460 lung
Compound,TGI (EKVX NSCLC) [µM],TGI (OVCAR-3 ovarian) [µM],TGI (DU-145 prostate) [µM],TGI (A498 renal) [µM],TGI (HOP-62 NSCLC) [µM],TGI (NCI-H522 lung) [µM],TGI (A549 NSCLC) [µM],TGI (HT29 colon) [µM],TGI (NCI/ADR-RES ovarian) [µM],TGI (NCI-H23 lung) [µM],TGI (NCI-H460 lung) [µM]
Cc1ccc(NC(=S)N=Nc2c(O)[nH]c3ccccc23)cc1,> 100,> 100,> 100,> 100,> 100,> 100,> 100,> 100,> 100,> 100,> 100
COc1ccc(NC(=S)Nc2c(C)n(C)n(-c3ccccc3)c2=O)cc1,> 100,> 100,> 100,> 100,> 100,> 100,> 100,> 100,> 100,> 100,> 100
O=C1c2cc([N+](=O)[O-])sc2C(=O)c2cc([N+](=O)[O-])sc21,7.78,6.65,23.9,32.7,15.3,3.02,49.6,11.5,11.3,15.5,43.8
COc1ccc(/C=C2/SC(c3c(O)ccc4ccccc34)N(NC(=O)CCCCCCCCC(=O)NN3C(=O)/C(=C\c4ccc(OC)c(OC)c4)SC3c3c(O)ccc4ccccc34)C2=O)cc1OC (centres undefined),> 100,> 58.5,> 100,49.3,> 39.8,> 100,> 21.4,> 100,32.1,> 75,> 100
CCCCN1CCC(O)(c2cc(C(=O)O)[nH]c2-c2cc(C)no2)C1=O (centres undefined),> 100,> 100,> 100,> 100,> 100,> 100,> 100,> 100,> 100,> 100,> 100
Brc1ccc(C2CC3(c4ccccc4)ON=C(c4ccccc4)N3c3ccccc3S2)cc1 (centres undefined),> 100,> 100,> 100,> 100,> 100,> 100,> 100,> 100,> 100,> 100,> 100
COc1cc(OC2OC(CO)C(O)C(O)C2O)c2c(c1)O[C@@H]1[C@H](O)Oc3cc(OC)c(OC)cc3[C@]1(O)C2=O (some centres undefined),> 25,> 25,> 25,> 25,> 25,> 25,> 25,> 25,> 25,> 25,> 25
C=CC(C)(C)n1cc(C2=C(O)C(=O)C(c3c(CC=C(C)C)[nH]c4ccccc34)=C(O)C2=O)c2ccccc21,6.01,3.05,5.46,2.99,2.63,6.18,7.85,7.36,9.09,19.6,4.36
NC(Cc1ccc(O)cn1)C(=O)O (centres undefined),> 100,> 100,> 100,> 100,> 100,> 100,> 100,> 100,> 100,> 100,> 100
Cc1ccc2c(=O)c(C(=O)NNC(=S)NC3CCCCC3)c[nH]c2n1,> 100,> 100,> 100,> 100,> 100,> 100,> 100,> 100,> 100,> 100,> 100
CC(=O)OCCCCn1cnc2c(Cl)nc(Nc3ccccc3)nc21,> 100,> 100,> 100,> 100,> 100,87.4,> 100,> 100,> 100,> 100,> 100
CCNC(=O)CNC(=O)C(Cc1ccc([N+](=O)[O-])cc1)NC(=O)OC(C)(C)C (centres undefined) (Boc-[ξPhe(4-NO2)]-Gly-NHEt),> 100,> 100,> 100,> 100,> 100,> 100,> 100,> 100,> 100,> 100,> 100
FC(F)(F)C1(c2ccccc2)SCc2nc3ccccc3n21 (centres undefined),> 100,> 100,> 100,> 100,> 100,> 100,> 100,> 100,> 100,> 100,> 100
COc1ccc(NC(=O)CC(=O)N2N=C(C)C(N=Nc3ccc(C(=O)O)cc3)C2=O)cc1 (centres undefined),> 100,> 100,> 100,> 100,> 100,> 100,> 100,> 100,> 100,> 100,> 100
OC1(C2(c3ccc(Cl)cc3)CCCC2)c2ccccc2C2=NCCN21 (centres undefined),31.6,30.9,16.3,29.4,32.6,32.3,31.3,23.5,33.2,36.1,29
OC[C@@H](O)[C@H](O)[C@@H](O)/C=N/Nc1ccc(Cl)nn1,> 100,> 100,> 100,> 100,> 100,> 100,> 100,> 100,> 100,> 100,> 100
Nc1nc(Cl)c(C=O)c(NCC2(CO)CCC2)n1,46.9,42.9,> 100,67.7,65.1,14.7,> 100,> 100,> 100,> 100,> 100
CN(/N=C/c1ccccc1C(=O)O)C1=NCCCCN1,> 100,> 100,> 100,> 100,> 100,36.7,> 100,> 100,> 100,> 100,> 100
C[C@H]1[C@H](C)CC[C@]2(C(=O)OC3OC(CO)C(O)C(O)C3O)CC[C@]3(C)C(=CC[C@@H]4[C@@]5(C)C[C@@H](O)[C@@H]6OC(=O)c7cc(O)c(O)c(O)c7-c7c(cc(O)c(O)c7O)C(=O)OC[C@]6(CO)[C@@H]5CC[C@]43C)[C@H]12 (some centres undefined),> 100,> 72.1,> 100,> 100,> 71.1,37.3,> 100,> 55.8,> 100,> 100,> 100
